From BindingDB's records for doi:10.1021/acschembio.5b00755 (German Cancer Research Center (Dkfz), 2016)

Molecular target: Methionine aminopeptidase 2 (Homo sapiens, UniProt P50579)
Experiment: Biochemical Assays
Conditions: pH 7.5
Protocol: Stock solutions for all assays were prepared in DMSO (10 mM) and stored at −20 °C. Assays were performed in 96 well plates (Greiner) at a total reaction volume of 100 μL. […] Then, the substrate Met-Gly-Met-Met was added to a final concentration of 400 μM. After an incubation period of 15 min (HsMetAP1), 20 min (EcMetAP), or 60 min (HsMetAP2) at 37 °C, the enzyme reactionwas stopped by adding 10 μL 4% trifluoroacetic acid (TFA), and the plate was centrifuged at 1000g for 10 min. Detection of the product Gly-Met-Met was performed by HPLC: C18 column (Dr. Maisch, ReproSil-Pur 120 ODS-3, 3 μm, 50 × 2 mm). An 80 μL injection volume was eluted with mobile phases A (H2O and 0.1% TFA, filtered, degasse

Chain of Methionine aminopeptidase 2 (P50579 whole entry): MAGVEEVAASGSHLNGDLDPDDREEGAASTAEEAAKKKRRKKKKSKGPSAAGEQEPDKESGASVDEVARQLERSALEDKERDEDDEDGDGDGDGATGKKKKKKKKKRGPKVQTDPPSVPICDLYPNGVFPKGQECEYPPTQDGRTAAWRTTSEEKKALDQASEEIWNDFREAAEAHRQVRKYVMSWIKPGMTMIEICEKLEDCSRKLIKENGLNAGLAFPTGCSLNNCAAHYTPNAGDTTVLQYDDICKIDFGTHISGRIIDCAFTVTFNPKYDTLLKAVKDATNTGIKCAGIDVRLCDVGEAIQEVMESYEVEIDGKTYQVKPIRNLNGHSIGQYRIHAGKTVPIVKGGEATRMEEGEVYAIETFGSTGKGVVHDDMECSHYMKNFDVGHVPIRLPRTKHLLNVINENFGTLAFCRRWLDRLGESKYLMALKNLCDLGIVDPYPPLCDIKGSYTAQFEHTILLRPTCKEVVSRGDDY

Structure (SMILES) | IC50
COc1ccc(Cn2nnc3c2[C@]2(CC[C@H]3OC(=O)NCC(C)C)CO2)cc1 (relative stereo) [(2'R*,7R*)-3-(4-methoxybenzyl)-3,5,6,7-tetrahydrospiro[benzo[d][1,2,3]triazole-4,2'-oxiran]-7-yl isobutylcarbamate (32)] | 600 nM
O=C1CCC2(CO2)c2c1nnn2Cc1ccc(C(F)(F)F)cc1 (centres undefined) [3-(4-(trifluoromethyl)benzyl)-5,6-dihydrospiro[benzo[d][1,2,3]triazole-4,2'-oxiran]-7(3H)-one (28)] | 440 nM
Cc1ccccc1Cn1nnc2c1C1(CCC2=O)CO1 (centres undefined) [3-(2-methylbenzyl)-5,6-dihydrospiro[benzo[d][1,2,3]triazole-4,2'-oxiran]-7(3H)-one (23)] | 2300 nM
N#Cc1cccc(Cn2nnc3c2C2(CCC3=O)CO2)c1 (centres undefined) [3-((7-oxo-6,7-dihydrospiro[benzo[d][1,2,3]triazole-4,2'-oxiran]-3(5H)-yl)methyl)benzonitrile (24)] | 1100 nM
O=C1CCC2(CO2)c2c1nnn2CC1CCCCC1 (centres undefined) [3-(cyclohexylmethyl)-5,6-dihydrospiro[benzo[d][1,2,3]triazole-4,2'-oxiran]-7(3H)-one (21)] | > 50000 nM
COc1ccc(Cn2nnc3c2[C@]2(CC[C@H]3OC(=O)c3ccccc3)CO2)cc1 [(2'R*,7R*)-3-(4-methoxybenzyl)-3,5,6,7-tetrahydrospiro[benzo[d][1,2,3]triazole-4,2'-oxiran]-7-yl benzoate (17a)] | 930 nM
COc1ccc(Cn2nnc3c2[C@]2(CC[C@H]3OC(=O)Nc3ccccc3)CO2)cc1 (relative stereo) [(2'R*,7R*)-3-(4-methoxybenzyl)-3,5,6,7-tetrahydrospiro[benzo[d][1,2,3]triazole-4,2'-oxiran]-7-yl phenylcarbamate (34)] | 990 nM
O=C1CCC2(CO2)c2c1nnn2Cc1ccc2ccccc2c1 (centres undefined) [3-(naphthalen-2-ylmethyl)-5,6-dihydrospiro[benzo[d][1,2,3]triazole-4,2'-oxiran]-7(3H)-one (25)] | 590 nM
O=C1CCC2(CO2)c2c1nnn2Cc1ccc(F)cc1 (centres undefined) [3-(4-fluorobenzyl)-5,6-dihydrospiro[benzo[d][1,2,3]triazole-4,2'-oxiran]-7(3H)-one (26)] | 250 nM
C=C1CCC(OC(=O)c2ccccc2)c2nnn(Cc3ccc(OC)cc3)c21 (centres undefined) [1-[(4-methoxyphenyl)methyl]-7-methylidene-4,5,6,7-tetrahydro-1H-1,2,3-benzotriazol-4-yl benzoate (16)] | > 50000 nM
O=C1CCC2(CO2)c2c1nnn2Cc1ccc(Cl)cc1 (centres undefined) [3-(4-chlorobenzyl)-5,6-dihydrospiro[benzo[d][1,2,3]triazole-4,2'-oxiran]-7(3H)-one (27)] | 520 nM
O=C1CCC2(CO2)c2c1nnn2Cc1ccccc1 (centres undefined) [3-benzyl-5,6-dihydrospiro[benzo[d][1,2,3]triazole-4,2'-oxiran]-7(3H)-one (22)] | 2900 nM
COc1ccc(Cn2nnc3c2C2(CCC3=O)CO2)cc1 (centres undefined) [3-(4-methoxybenzyl)-5,6-dihydrospiro[benzo[d][1,2,3]triazole-4,2'-oxiran]-7(3H)-one (14)] | 460 nM

Next, values leading:

IC50 | Structure (SMILES)
1400 nM | O=C(O[C@@H]1CC[C@]2(CO2)c2c1nnn2Cc1ccccc1)c1ccccc1 (relative stereo) [(2'R*,7R*)-3-benzyl-3,5,6,7-tetrahydrospiro [benzo[d][1,2,3]triazole-4,2'-oxiran]-7-yl benzoate (29a)]
46000 nM | CC(C)NC(=O)O[C@H]1CC[C@]2(CO2)c2c1nnn2Cc1ccccc1 (relative stereo) [(2'R*,7S*)-3-benzyl-3,5,6,7-tetrahydrospiro [benzo[d][1,2,3]triazole-4,2'-oxiran]-7-yl isopropylcarbamate (30b)]
600 nM | COc1ccc(Cn2nnc3c2[C@]2(CC[C@H]3NC(=O)OCC(C)C)CO2)cc1 [isobutyl ((2'R*,7R*)-3-(4-methoxybenzyl)-3,5,6,7-tetrahydrospiro[benzo[d][1,2,3]triazole-4,2'-oxiran]-7-yl)carbamate (35)]
780 nM | CC(C)NC(=O)O[C@@H]1CC[C@]2(CO2)c2c1nnn2Cc1ccccc1 (relative stereo) [(2'R*,7R*)-3-benzyl-3,5,6,7-tetrahydrospiro [benzo[d][1,2,3]triazole-4,2'-oxiran]-7-yl isopropylcarbamate (30a)]
35000 nM | COc1ccc(Cn2nnc3c2[C@]2(CC[C@@H]3OC(=O)c3ccccc3)CO2)cc1 [(2'R*,7S*)-3-(4-methoxybenzyl)-3,5,6,7-tetrahydrospiro[benzo[d][1,2,3]triazole-4,2'-oxiran]-7-yl benzoate (17b)]
> 50000 nM | O=C(O[C@H]1CC[C@]2(CO2)c2c1nnn2Cc1ccccc1)c1ccccc1 (relative stereo) [(2'R*,7S*)-3-benzyl-3,5,6,7-tetrahydrospiro [benzo[d][1,2,3]triazole-4,2'-oxiran]-7-yl benzoate (29b)]
